Data published in patent publication US20260176275A1, “VINYLPHOSPHONIC ACID-MODIFIED MRNA CAP ANALOG, METHOD FOR PREPARING SAME, AND USE THEREOF” (Jiangsu Synthgene Biotechnology Co., Ltd., priority 2022, published 2026).

How the values were obtained:
[1] = biological target: eukaryotic initiation factor (elF4E) (Homo sapiens, UniProt P06730); experiment: Assay of binding ability to eukaryotic initiation factor (elF4E), Biacore T100
Experimental: Test method: Firstly, experimental samples, including the cap analog samples of Examples 1-7, compounds 10-13, 16, 17, 25, 31 and 34, and Comparative Example 1, were diluted with a running buffer (50 mM phosphate, 100 mM sodium chloride, and 0.01% vol/vol Tween 20, pH 6.0 or 7.4). The sample injection time was […], the sample injection flow rate was 20 L/min, and the dissociation time was […]. The residual samples were eluted with a regeneration buffer (10 mM HEPES, 150 mM NaCl, and 0.010% vol/vol Tween 20, pH 7.4) for 30 s at a flow rate of 30 μL/min. Finally, through analysis by Biacore T100 evaluation software (version 2.0.2), sensorgrams were generated and the binding constants were calculated.

T7 RNA polymerase [2] = biological target: T1, T7 RNA polymerase (Escherichia phage T7, UniProt P00573); experiment: IVT capping rate of mRNA by LC-MS after RNase H cleavage; type: biochemical
Experimental: (§1) In-vitro synthesis of mRNA cap analogs modified with vinylphosphonic acid: Firstly, a plasmid was linearized with NotI and digested at […] overnight. A DNA template was extracted. mRNAs were synthesized by in-vitro transcription using the vinylphosphonic acid-modified mRNA cap analogs of Examples 1-7 and compounds 10-13, 16, 17, 25, 31 and 34, and the cap analog of Comparative Example 1 as cap structures, respectively.
(§2) Note: During the experiment, the volume of the materials required for the system was calculated firstly, and then sample loading was performed. Firstly, sterile enzyme-free water was added into the system, and then 10× buffer, NTPs, and the cap analog were sequentially added. The mixture was uniformly mixed and then gently centrifuged, followed by addition of the nuclease inhibitor, the inorganic pyrophosphatase, the T7 RNA polymerase, and the linearized DNA template. The mixture was well mixed, then gently centrifuged, and incubated at 37° C. After 2 h, DNase I (1 U) was added, and the mixture was incubated at 37° C. for another 30 min to remove the DNA template. RNA purification was then performed (usually using the magnetic bead purification method). The purified mRNA was dissolved in sterile enzyme-free water, and then quantitative detection was performed by using Nanodrop One.
Liquid chromatography-mass spectrometry (LC-MS) was used to detect the IVT capping rates of mRNAs with different starting cap analogs. Firstly, a labeled (usually biotin-labeled) DNA probe matched with the starting base of mRNA as the transcript product was required to be designed, and streptavidin-labeled magnetic beads were washed, and then incubated with the synthesized DNA probe, mRNA and 10× RNase H reaction buffer with slowly mixing at room temperature for 30 min. 20 L of RNase H (5 U/μL) was then added, and the mixture was incubated at 37° C. for 3 h, with uniform mixing every half hour. After the incubation was completed, the magnetic beads were cleaned, and then 100 μL of 75% methanol heated to 80° C. was added to the cleaned magnetic beads. The mixture was heated to 80° C. on a heating plate, held for 3 min, and then placed on a magnetic rack. The supernatant was pipetted and dried at room temperature for 45 min to 10 Lby using an evaporation centrifuge. The sample was then resuspended in 50 μL of 100 μM EDTA/1% MeOH for LC-MS analysis to determine the capping of RNA in the transcription reaction. Due to the significant difference in molecular weight between capped and uncapped bases, the capping rates of mRNA transcription initiated with different cap analogs can be determined by using the difference in molecular weight.

T7 RNA polymerase [3] = biological target: T1, T7 RNA polymerase; experiment: mRNA in-vitro transcription yield with cap analog (T7 IVT, Nanodrop One quantification); type: biochemical
Experimental: as §1, §2

293T cells = experiment: mRNA translation efficiency: eGFP mRNA capped with the analogs transfected into 293T cells, GFP fluorescence; type: cell-based; settings: summary of Table 6
Experimental: Test method: In-vitro transcription was initiated with the cap analogs of Examples 1-7, compounds 10-13, 16, 17, 25, 31 and 34, and Comparative Example 1 by using an eGFP coding sequence as a DNA template. The different mRNA products obtained were then transfected into 293T cells. The 293T cells were plated (onto a 24-well plate) at (0.5-1)×10^5 cells/well. During the transfection, in general, the cell density was preferably 60%-80%; […] was transfected into each well, and the Lipofectamine MessengerMAX Transfection Reagent (Invitrogen) was selected as the transfection reagent and used according to its usage instructions. The transfected cells were placed in an incubator at 37° C. with CO2. After transfection for 4-6 h, the medium was replaced with a fresh complete medium. After incubation in the incubator at 37° C. with CO2 for 24 h, the fluorescence intensity of GFPs in the cells was observed through a fluorescence microscope, and the fluorescence intensity ratios of Examples 1-7 and compounds 10-13, 16, 17, 25, 31 and 34 relative to Comparative Example 1 were calculated based on the fluorescence intensities.

T1 sequence (P00573 whole entry): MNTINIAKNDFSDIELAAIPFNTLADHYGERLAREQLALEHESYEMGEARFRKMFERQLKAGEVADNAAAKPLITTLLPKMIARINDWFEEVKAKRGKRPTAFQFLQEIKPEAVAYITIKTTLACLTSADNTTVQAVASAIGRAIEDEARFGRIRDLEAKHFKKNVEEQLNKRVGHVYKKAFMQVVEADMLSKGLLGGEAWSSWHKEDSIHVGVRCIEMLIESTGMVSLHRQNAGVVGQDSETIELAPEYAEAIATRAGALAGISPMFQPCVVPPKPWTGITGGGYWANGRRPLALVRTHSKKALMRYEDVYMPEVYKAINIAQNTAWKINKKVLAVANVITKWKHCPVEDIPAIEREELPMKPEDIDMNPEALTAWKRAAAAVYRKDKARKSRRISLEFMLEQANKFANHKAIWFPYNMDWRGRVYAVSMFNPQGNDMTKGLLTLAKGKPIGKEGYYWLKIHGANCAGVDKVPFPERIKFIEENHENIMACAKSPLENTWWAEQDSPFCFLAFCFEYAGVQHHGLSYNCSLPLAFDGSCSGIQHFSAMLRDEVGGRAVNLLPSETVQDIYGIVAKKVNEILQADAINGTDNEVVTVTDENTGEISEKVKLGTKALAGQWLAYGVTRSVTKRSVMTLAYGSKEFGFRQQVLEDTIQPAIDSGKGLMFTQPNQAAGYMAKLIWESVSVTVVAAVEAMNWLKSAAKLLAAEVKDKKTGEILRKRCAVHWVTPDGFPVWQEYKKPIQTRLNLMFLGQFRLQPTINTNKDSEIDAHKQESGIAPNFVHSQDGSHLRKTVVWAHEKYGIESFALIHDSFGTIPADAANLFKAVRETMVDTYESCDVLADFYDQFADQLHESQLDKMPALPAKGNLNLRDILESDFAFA
eukaryotic initiation factor (elF4E), sequence (P06730 whole entry): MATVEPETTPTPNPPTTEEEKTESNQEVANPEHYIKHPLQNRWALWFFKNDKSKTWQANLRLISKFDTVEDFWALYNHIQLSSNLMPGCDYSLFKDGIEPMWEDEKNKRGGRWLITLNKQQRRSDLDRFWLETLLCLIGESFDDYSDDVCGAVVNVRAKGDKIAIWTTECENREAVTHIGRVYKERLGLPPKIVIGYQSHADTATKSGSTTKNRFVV

SMILES: COC1[C@@H](OP(=O)(O)/C=C/[C@H]2O[C@@H](n3cnc4c(=O)[nH]c(N)nc43)C(O)[C@H]2O)[C@@H](/C=C\P(=O)(O)OP(=O)(O)OP(=O)(O)/C=C\[C@H]2O[C@@H](n3c[n+](C)c4c(=O)[nH]c(N)nc43)[C@@H](O)C2O)O[C@H]1n1cnc2c(N)ncnc21 (stereo partly shown) [Example 7]
- binding constant to elF4E protein compared with Comparative Example 1 (in words) ([1]; Table 5): the lowest as compared to Comparative Example 1
- Kd ([1]; cap analog to elF4E protein, running buffer pH 6.0 or 7.4, read-out: Binding constant (converted)): 1160 nM
- Capping rate (T7 RNA polymerase [2]; LC-MS of mRNA transcribed with the cap analog): 82.6%
- capping efficiency compared with Comparative Example 1 (in words) (T7 RNA polymerase [2]; text summary of Table 4): significantly lower than those of Comparative Example 1
- Yield (T7 RNA polymerase [3]; mRNA from 20 μL IVT system, 1 μl 100 mM cap analog, 1 μg template, 37° C. 2 h): 85 µg
- in-vitro transcription yield compared with Comparative Example 1 (in words) (T7 RNA polymerase [3]; text summary of Table 4): significantly lower than those of Comparative Example 1
- intracellular translation effect of mRNA compared with Comparative Example 1 (in words) (293T cells): the lowest as compared to Comparative Example 1
